In series [1] the target is Eukaryotic translation initiation factor 4E (Homo sapiens) (UniProt P06730). The series can be described thus: Binding affinity to recombinant eIF4E by fluorescence quenching titration method.
The target of series [2] is Eukaryotic translation initiation factor 4E (Oryctolagus cuniculus) (UniProt P29338). The series can be described thus: Inhibition of eIF4E-mediated mRNA translation in rabbit reticulocyte lysate assessed as translation efficiency after 60 mins by luciferase reporter gene assay relative to m7GpppG-capped mRNA. For orientation: In a reporter assay the amount or activity of a reporter protein is the signal.
Chain of Eukaryotic translation initiation factor 4E (Oryctolagus cuniculus) (P29338 whole entry): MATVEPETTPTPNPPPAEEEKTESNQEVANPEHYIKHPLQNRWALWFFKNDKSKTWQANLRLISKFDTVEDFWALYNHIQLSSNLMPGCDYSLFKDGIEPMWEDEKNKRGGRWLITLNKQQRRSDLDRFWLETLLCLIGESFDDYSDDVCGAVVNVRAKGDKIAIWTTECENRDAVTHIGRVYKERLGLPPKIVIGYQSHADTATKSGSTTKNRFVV

Series [3] is described as follows: Stability of the compound assessed as human recombinant DcpS -mediated hydrolysis after 2 hrs by HPLC. Type of series: ADME.
For series [4], the target named is T1, Eukaryotic translation initiation factor 4E (Oryctolagus cuniculus, UniProt P29338). In words: Inhibition of eIF4E-mediated mRNA translation in rabbit reticulocyte lysate pre-incubated for 60 mins prior to mRNA addition by luciferase reporter gene assay.
T1 sequence (P29338 whole entry): as above
The nature of series [5]: Chemical stability of the compound in aqueous buffer at pH 8 assessed as decomposition at 5 mM up to 2 hrs by RP-HPLC. Type of series: physicochemical. The following applies: pH 8, 2 h, 5000 µM.
Series [6] can be described thus: Chemical stability of the compound in aqueous buffer at pH 2 assessed as decomposition at 5 mM after 24 hrs by RP-HPLC. Type of series: physicochemical. The settings on record: read-out: Drug degradation.
Series [7] in a line: Chemical stability of the compound in aqueous buffer at pH 6 assessed as decomposition at 5 mM up to 2 hrs by RP-HPLC. Type of series: physicochemical. The following applies: pH 6, 2 h, 5000 µM.
Series [8] in a line: Chemical stability of the compound in aqueous buffer at pH 2 assessed as decomposition at 5 mM up to 2 hrs by RP-HPLC. The settings on record: pH 2, 2 h, 5000 µM. Type of series: physicochemical.
Series [9] in a line: Chemical stability of the compound in aqueous buffer at pH 8 assessed as decomposition at 5 mM after 24 hrs by RP-HPLC. Type of series: physicochemical. The following applies: read-out: Drug degradation.
Series [10] addresses T1, Eukaryotic translation initiation factor 4E. In words: Inhibition of eIF4E-mediated mRNA translation in rabbit reticulocyte lysate by luciferase reporter gene assay.
Series [11] in a line: Stability of the compound at -20 degreeC after 12 months. Type of series: physicochemical. The following applies: 8766 h.
The nature of series [12]: Chemical stability of the compound in aqueous buffer at pH 6 assessed as decomposition at 5 mM after 24 hrs by RP-HPLC. The settings on record: read-out: Drug degradation. Type of series: physicochemical.
Series [13] addresses T2, m7GpppX diphosphatase (Homo sapiens) (UniProt Q96C86).
T2 sequence (whole entry): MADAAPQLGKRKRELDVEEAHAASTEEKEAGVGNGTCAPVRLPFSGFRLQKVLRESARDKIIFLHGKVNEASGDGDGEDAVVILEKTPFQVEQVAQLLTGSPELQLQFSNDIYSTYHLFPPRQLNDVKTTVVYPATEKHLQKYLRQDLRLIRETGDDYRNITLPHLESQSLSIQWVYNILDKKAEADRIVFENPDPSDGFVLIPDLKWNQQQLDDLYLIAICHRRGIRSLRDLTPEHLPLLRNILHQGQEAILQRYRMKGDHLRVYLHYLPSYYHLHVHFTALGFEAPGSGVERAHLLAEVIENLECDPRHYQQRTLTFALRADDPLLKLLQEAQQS
Description: Binding affinity to human recombinant DcpS by fluorescence quenching titration method

The species entered for series [14] is Homo sapiens. In words: Selectivity ratio of Ka for human recombinant DcpS to Ka for eIF4E.
In series [15] the test system is Nucleic Acid. In words: Capping efficiency in mRNA after 60 mins by gel electrophoresis in the presence of SP6 polymerase. Type of series: nucleic-acid assay.

In general, IC50 refers to the midpoint of a concentration-inhibition curve. Low readings indicate inhibition by little substance, high ones a need for much substance.

Active and inactive are the calls of the source. The rule behind the calls is not given here.

Chain of Eukaryotic translation initiation factor 4E (Homo sapiens) (P06730 whole entry): as the sequence (P29338 whole entry) above, with P16T, A17T, D174E counted along it

For the molecule `C[n+]1cn([C@@H]2O[C@H](COP(=O)(O)OP(=O)(O)OP(=O)([O-])OP(=O)(O)OC[C@H]3O[C@@H](n4cnc5c(=O)[nH]c(N)nc54)[C@H](O)[C@@H]3O)[C@@H](O)[C@H]2O)c2nc(N)nc(O)c21`, the Ka in series [1] is 111 µM⁻¹.

`CO[C@@H]1[C@H](O)[C@@H](COP(=O)(O)OP(=O)([O-])OP(=O)(O)OP(=O)(O)OC[C@H]2O[C@@H](n3cnc4c(=O)[nH]c(N)nc43)[C@H](O)[C@@H]2O)O[C@H]1n1c[n+](C)c2c(O)nc(N)nc21`: in [2], the fold change (FC) worked out at 1.56. The Ka in series [1] stood at 99.8 µM⁻¹. In addition, in series [3], the Drug degradation entry is recorded as “Active”.

In turn, `C[n+]1cn([C@@H]2O[C@H](COP(=O)(O)OP(=O)([O-])OP(=O)(O)OC[C@H]3O[C@@H](n4cnc5c(=O)[nH]c(N)nc54)[C@H](O)[C@@H]3O)[C@@H](O)[C@H]2O)c2nc(N)[nH]c(=O)c21` yielded an IC50 in series [4] greater than 20 µM.

Regarding `C[n+]1cn([C@@H]2O[C@H](COP(=O)([O-])OP(=O)(O)OP(=O)(O)NP(=O)(O)OC[C@H]3O[C@@H](n4cnc5c(=O)[nH]c(N)nc54)[C@H](O)[C@@H]3O)[C@@H](O)[C@H]2O)c2nc(N)[nH]c(=O)c21.N.N.N`, the Drug degradation result in series [5] was “Not Active”; in [7], “Not Active”; in [8], “Not Active”; in [3], “Active”. The degraded at 24 h, 5000 µM in series [6], in series [9] and in series [12] was less than 10% in each case. Moreover, the values for the IC50 in series [4] and in series [10] were 16 µM and 3.52 µM, respectively. For the same molecule, the Ka in series [1] stood at 141 µM⁻¹. The Stability entry in series [11] is “Stable”.

With `C[n+]1cn([C@@H]2O[C@H](COP(=O)([O-])NP(=O)([O-])OP(=O)([O-])OP(=O)([O-])OC[C@H]3O[C@@H](n4cnc5c(=O)[nH]c(N)nc54)[C@H](O)[C@@H]3O)[C@@H](O)[C@H]2O)c2nc(N)[nH]c(=O)c21.[Na+].[Na+].[Na+]`, the Drug degradation result in [5], in [7], in series [8] and in series [3] was “Not Active” throughout. The results for the Ka in [13] and in series [1] were 155 µM⁻¹ and 112 µM⁻¹, respectively. The degraded at 24 h, 5000 µM in series [6], in series [9] and in [12] was less than 10% in each case. The IC50 turned out to be 3.58 µM in series [4] and 2.62 µM in [10]. The Ratio in series [14] is 1.4. The Stability entry in [11] is on record as “Stable”.

In [13], `C[n+]1cn([C@@H]2O[C@H](COP(=O)(S)OP(=O)(O)OP(=O)([O-])OC[C@H]3O[C@@H](n4cnc5c(=O)[nH]c(N)nc54)[C@H](O)[C@@H]3O)[C@@H](O)[C@H]2O)c2nc(N)[nH]c(=O)c21` (some centres undefined) showed a Ka of 146 µM⁻¹.

On to `Nc1nc2c(ncn2[C@@H]2O[C@H](COP(=O)(O)OP(=O)(O)OP(=O)(O)OC[C@H]3O[C@@H](n4cnc5c(N)ncnc54)[C@H](O)[C@@H]3O)[C@@H](O)[C@H]2O)c(=O)[nH]1`, for which, in series [2], the fold change (FC) is 0.18.

As for `CO[C@@H]1[C@H](O)[C@@H](COP(=O)([O-])NP(=O)([O-])OP(=O)([O-])OC[C@H]2O[C@@H](n3cnc4c(=O)[nH]c(N)nc43)[C@H](O)[C@@H]2O)O[C@H]1n1c[n+](C)c2c(=O)[nH]c(N)nc21.[Na+].[Na+]`, the fold change (FC) in [2] turned out to be 1.13. In addition, the Drug degradation entry in [5], in series [7], in series [8] and in series [3] was “Not Active” each time. In addition, the Ka amounted to 33.6 µM⁻¹ in [13] and 18.5 µM⁻¹ in series [1]. The degraded at 24 h, 5000 µM in [6], in series [9] and in series [12] was less than 10% in each case. The Ratio in series [14] was 1.8. Also, the Stability entry in series [11] is listed as “Stable”. For the same molecule, in series [15], the outcome was Active.

With `C[n+]1cn([C@@H]2O[C@H](COP(=O)(O)OP(=O)(O)OP(=O)(O)OP(=O)(O)OC[C@H]3O[C@@H](n4cnc5c(=O)[nH]c(N)nc54)[C@H](O)[C@@H]3O)[C@@H](O)[C@H]2O)c2nc(N)[n-]c(=O)c21`, the IC50 is greater than 20 µM in series [4] and 5 µM in series [10]. For the same molecule, in series [3], the Drug degradation result is reported as “Active”.

Consider `C[n+]1cn([C@@H]2O[C@H](COP(=O)(O)CP(=O)(O)OP(=O)([O-])OC[C@H]3O[C@@H](n4cnc5c(=O)[nH]c(N)nc54)[C@H](O)[C@@H]3O)[C@@H](O)[C@H]2O)c2nc(N)nc(O)c21`, for which, in series [1], the Ka is 6.3 µM⁻¹. Moreover, the Ratio in [14] was determined as 37.1.

With `C[n+]1cn([C@@H]2O[C@H](COP(=O)([O-])NP(=O)(O)OP(=O)(O)OC[C@H]3O[C@@H](n4cnc5c(=O)[nH]c(N)nc54)[C@H](O)[C@@H]3O)[C@@H](O)[C@H]2O)c2nc(N)[nH]c(=O)c21.N.N`, the Drug degradation entry in series [5], in series [7], in series [8] and in [3] was “Not Active” in each case. Besides, the Ka was 218 µM⁻¹ in series [13] and 14.6 µM⁻¹ in series [1]. For the same molecule, the degraded at 24 h, 5000 µM in series [6], in [9] and in [12] was less than 10% each time. Moreover, the IC50 stood at 3.74 µM in [4] and 3.97 µM in series [10]. The Ratio in series [14] amounted to 15. Besides, in [11], the Stability entry was “Stable”.

With `CO[C@H]1[C@@H](O)[C@H](n2c[n+](C)c3c(O)nc(N)nc32)O[C@@H]1COP(=O)(O)OP(=O)([O-])OP(=O)(O)OC[C@H]1O[C@@H](n2cnc3c(=O)[nH]c(N)nc32)[C@H](O)[C@@H]1O`, the fold change (FC) in series [2] worked out at 1.47.

With `CO[C@@H]1[C@H](O)[C@@H](COP(=O)([O-])OP(=O)(O)CP(=O)(O)OC[C@H]2O[C@@H](n3cnc4c(=O)[nH]c(N)nc43)[C@H](O)[C@@H]2O)O[C@H]1n1c[n+](C)c2c(O)nc(N)nc21`, the fold change (FC) in series [2] was 1.25.

In the case of `CO[C@@H]1[C@H](O)[C@@H](COP(=O)(O)CP(=O)(O)OP(=O)([O-])OP(=O)(O)OC[C@H]2O[C@@H](n3cnc4c(=O)[nH]c(N)nc43)[C@H](O)[C@@H]2O)O[C@H]1n1c[n+](C)c2c(O)nc(N)nc21`, the fold change (FC) in series [2] turned out to be 1.5.

Consider `CO[C@@H]1[C@H](O)[C@@H](COP(=O)(O)CP(=O)(O)OP(=O)([O-])OC[C@H]2O[C@@H](n3cnc4c(=O)[nH]c(N)nc43)[C@H](O)[C@@H]2O)O[C@H]1n1c[n+](C)c2c(O)nc(N)nc21`, for which the fold change (FC) in [2] turned out to be 1.1.

For the molecule `C[n+]1cn([C@@H]2O[C@H](COP(=O)(O)OP(=O)([O-])OP(=O)(O)OC[C@H]3O[C@@H](n4cnc5c(=O)[nH]c(N)nc54)[C@H](O)[C@@H]3O)[C@@H](O)[C@H]2O)c2nc(N)nc(O)c21`, the fold change (FC) in series [2] was 1. The Ka in series [1] was found to be 12.5 µM⁻¹. In series [14], the Ratio is greater than 1.

For `CO[C@@H]1[C@H](O)[C@@H](COP(=O)(O)OP(=O)([O-])OP(=O)(O)OC[C@H]2O[C@@H](n3cnc4c(=O)[nH]c(N)nc43)[C@H](O)[C@@H]2O)O[C@H]1n1c[n+](C)c2c(O)nc(N)nc21`, the Ka in series [1] was 10.8 µM⁻¹.

Regarding `CO[C@@H]1[C@H](O)[C@@H](COP(=O)(O)OP(=O)([O-])OP(=O)(O)CP(=O)(O)OC[C@H]2O[C@@H](n3cnc4c(=O)[nH]c(N)nc43)[C@H](O)[C@@H]2O)O[C@H]1n1c[n+](C)c2c(O)nc(N)nc21`, the fold change (FC) in series [2] was determined as 1.56.

For the molecule `CO[C@@H]1[C@H](O)[C@@H](COP(=O)([O-])OP(=O)([O-])OP(=O)([O-])NP(=O)([O-])OC[C@H]2O[C@@H](n3cnc4c(=O)[nH]c(N)nc43)[C@H](O)[C@@H]2O)O[C@H]1n1c[n+](C)c2c(=O)[nH]c(N)nc21.[Na+].[Na+].[Na+]`, the fold change (FC) in series [2] turned out to be 1.01. In addition, the Drug degradation result in series [5] is recorded as “Not Active”; in series [7], “Not Active”; in series [8], “Not Active”; in [3], “Active”. Also, the degraded at 24 h, 5000 µM in series [6], in [9] and in [12] was less than 10% in each case. Moreover, in series [1], the Ka stood at 132 µM⁻¹. For the same molecule, the Stability entry in series [11] is “Stable”. Further, the result in [15] was Active.

Take `C[n+]1cn([C@@H]2O[C@H](COP(=O)(O)CP(=O)(O)OP(=O)([O-])OP(=O)(O)OC[C@H]3O[C@@H](n4cnc5c(=O)[nH]c(N)nc54)[C@H](O)[C@@H]3O)[C@@H](O)[C@H]2O)c2nc(N)nc(O)c21`: the Ka in series [1] worked out at 51.8 µM⁻¹. Moreover, in [14], the Ratio came to 3.1.

(Values after ChEMBL document CHEMBL1949618, “Synthesis and properties of mRNA cap analogs containing imidodiphosphate moiety--fairly mimicking natural cap structure, yet resistant to enzymatic hydrolysis” (Bioorg Med Chem, 2012).)
